The text below walks through data of US11034696B2, “Compounds for inhibiting LRRK2 kinase activity” (GLAXOSMITHKLINE INTELLECTUAL PROPERTY DEVELOPMENT LIMITED, priority 2017, dated 2021).

Several values for one entry are separate records, joined by “and”; a condition that tells them apart may be missing. Equal entries are not always repeated. Bounds are passed on as bounds.

The assay concerns the target T1, LRRK2 (Homo sapiens, UniProt Q5S007).
T1 construct: A BacMam virus expressing full length recombinant LRRK2 was purchased from Invitrogen; host or cells: SH-SY5Y human neuroblastoma cells transduced with BacMam LRRK2 virus
Description: Recombinant cellular LRRK2 AlphaScreen assay (LRRK2 Ser935 phosphorylation in SH-SY5Y cells over-expressing recombinant full length LRRK2). The format is cell-based. To be noted: 60 minutes compound incubation, read-out: pIC50 in the recombinant cellular LRRK2 AlphaScreen assay (converted). The text has this:
2) Recombinant Cellular LRRK2 AlphaScreen Assay
To determine the activity of compounds against LRRK2 kinase activity in cells, the observed LRRK2 kinase-dependent modulation of LRRK2 Ser 935 phosphorylation (Dzamko et al., 2010, Biochem. J. 430: 405-413) was utilized to develop a quantitative 384 well plate-based immunoassay of LRRK2 Ser935 phosphorylation in the human neuroblastoma cell line SH-SY5Y, engineered to over-express recombinant full length LRRK2 protein.
A BacMam virus expressing full length recombinant LRRK2 was purchased from Invitrogen and amplified by inoculation of SF-9 cells at MOI 0.3 for 4-5 days in Sf-900 III SFM medium supplemented with 3% fetal bovine serum. Infected cell cultures were then centrifuged at 2000 g for 20 minutes, viral supernatant titer determined by anti-gp64 plaque assay and stored at 4° C.
Affinity-purified anti-phospho LRRK2 Ser935 sheep polyclonal antibody (Dzamko et al., 2010, Biochem. J. 430: 405-413) was biotinylated by standard methods (PerkinElmer). Anti-LRRK2 rabbit polyclonal antibody was purchased from Novus Biologicals. AlphaScreen Protein A IgG Kit (including acceptor and donor beads) was purchased from Perkin Elmer. […]
Serial dilutions of test compounds were prepared in Opti-MEM reduced serum media (Invitrogen) and 5.6 ul transferred from compound plate to cell assay plate to achieve a top final assay concentration of 10 uM. […] 10 ul of antibody/acceptor bead mix [(1/1000 biotinylated-pS935 LRRK2 antibody, 1/1000 total-LRRK2 antibody, 1/100 Acceptor beads in AlphaScreen detection buffer (25 mM Hepes (pH 7.4), 0.5% Triton X-100, 1 mg/ml Dextran 500 and 0.1% BSA)] was then added to each well and plates incubated for 2 hours at ambient temperature in the dark. 10 μl of donor beads solution (1/33.3 donor beads in AlphaScreen detection buffer) was then added to each well. Following incubation for a further 2 hours at ambient temperature in the dark, plates were read on an EnVision™ plate reader at emission 520-620 nm with excitation 680 nm. […]
Background: Bead proximity is the source of the signal in Alpha formats.

T1 sequence (Q5S007 whole entry): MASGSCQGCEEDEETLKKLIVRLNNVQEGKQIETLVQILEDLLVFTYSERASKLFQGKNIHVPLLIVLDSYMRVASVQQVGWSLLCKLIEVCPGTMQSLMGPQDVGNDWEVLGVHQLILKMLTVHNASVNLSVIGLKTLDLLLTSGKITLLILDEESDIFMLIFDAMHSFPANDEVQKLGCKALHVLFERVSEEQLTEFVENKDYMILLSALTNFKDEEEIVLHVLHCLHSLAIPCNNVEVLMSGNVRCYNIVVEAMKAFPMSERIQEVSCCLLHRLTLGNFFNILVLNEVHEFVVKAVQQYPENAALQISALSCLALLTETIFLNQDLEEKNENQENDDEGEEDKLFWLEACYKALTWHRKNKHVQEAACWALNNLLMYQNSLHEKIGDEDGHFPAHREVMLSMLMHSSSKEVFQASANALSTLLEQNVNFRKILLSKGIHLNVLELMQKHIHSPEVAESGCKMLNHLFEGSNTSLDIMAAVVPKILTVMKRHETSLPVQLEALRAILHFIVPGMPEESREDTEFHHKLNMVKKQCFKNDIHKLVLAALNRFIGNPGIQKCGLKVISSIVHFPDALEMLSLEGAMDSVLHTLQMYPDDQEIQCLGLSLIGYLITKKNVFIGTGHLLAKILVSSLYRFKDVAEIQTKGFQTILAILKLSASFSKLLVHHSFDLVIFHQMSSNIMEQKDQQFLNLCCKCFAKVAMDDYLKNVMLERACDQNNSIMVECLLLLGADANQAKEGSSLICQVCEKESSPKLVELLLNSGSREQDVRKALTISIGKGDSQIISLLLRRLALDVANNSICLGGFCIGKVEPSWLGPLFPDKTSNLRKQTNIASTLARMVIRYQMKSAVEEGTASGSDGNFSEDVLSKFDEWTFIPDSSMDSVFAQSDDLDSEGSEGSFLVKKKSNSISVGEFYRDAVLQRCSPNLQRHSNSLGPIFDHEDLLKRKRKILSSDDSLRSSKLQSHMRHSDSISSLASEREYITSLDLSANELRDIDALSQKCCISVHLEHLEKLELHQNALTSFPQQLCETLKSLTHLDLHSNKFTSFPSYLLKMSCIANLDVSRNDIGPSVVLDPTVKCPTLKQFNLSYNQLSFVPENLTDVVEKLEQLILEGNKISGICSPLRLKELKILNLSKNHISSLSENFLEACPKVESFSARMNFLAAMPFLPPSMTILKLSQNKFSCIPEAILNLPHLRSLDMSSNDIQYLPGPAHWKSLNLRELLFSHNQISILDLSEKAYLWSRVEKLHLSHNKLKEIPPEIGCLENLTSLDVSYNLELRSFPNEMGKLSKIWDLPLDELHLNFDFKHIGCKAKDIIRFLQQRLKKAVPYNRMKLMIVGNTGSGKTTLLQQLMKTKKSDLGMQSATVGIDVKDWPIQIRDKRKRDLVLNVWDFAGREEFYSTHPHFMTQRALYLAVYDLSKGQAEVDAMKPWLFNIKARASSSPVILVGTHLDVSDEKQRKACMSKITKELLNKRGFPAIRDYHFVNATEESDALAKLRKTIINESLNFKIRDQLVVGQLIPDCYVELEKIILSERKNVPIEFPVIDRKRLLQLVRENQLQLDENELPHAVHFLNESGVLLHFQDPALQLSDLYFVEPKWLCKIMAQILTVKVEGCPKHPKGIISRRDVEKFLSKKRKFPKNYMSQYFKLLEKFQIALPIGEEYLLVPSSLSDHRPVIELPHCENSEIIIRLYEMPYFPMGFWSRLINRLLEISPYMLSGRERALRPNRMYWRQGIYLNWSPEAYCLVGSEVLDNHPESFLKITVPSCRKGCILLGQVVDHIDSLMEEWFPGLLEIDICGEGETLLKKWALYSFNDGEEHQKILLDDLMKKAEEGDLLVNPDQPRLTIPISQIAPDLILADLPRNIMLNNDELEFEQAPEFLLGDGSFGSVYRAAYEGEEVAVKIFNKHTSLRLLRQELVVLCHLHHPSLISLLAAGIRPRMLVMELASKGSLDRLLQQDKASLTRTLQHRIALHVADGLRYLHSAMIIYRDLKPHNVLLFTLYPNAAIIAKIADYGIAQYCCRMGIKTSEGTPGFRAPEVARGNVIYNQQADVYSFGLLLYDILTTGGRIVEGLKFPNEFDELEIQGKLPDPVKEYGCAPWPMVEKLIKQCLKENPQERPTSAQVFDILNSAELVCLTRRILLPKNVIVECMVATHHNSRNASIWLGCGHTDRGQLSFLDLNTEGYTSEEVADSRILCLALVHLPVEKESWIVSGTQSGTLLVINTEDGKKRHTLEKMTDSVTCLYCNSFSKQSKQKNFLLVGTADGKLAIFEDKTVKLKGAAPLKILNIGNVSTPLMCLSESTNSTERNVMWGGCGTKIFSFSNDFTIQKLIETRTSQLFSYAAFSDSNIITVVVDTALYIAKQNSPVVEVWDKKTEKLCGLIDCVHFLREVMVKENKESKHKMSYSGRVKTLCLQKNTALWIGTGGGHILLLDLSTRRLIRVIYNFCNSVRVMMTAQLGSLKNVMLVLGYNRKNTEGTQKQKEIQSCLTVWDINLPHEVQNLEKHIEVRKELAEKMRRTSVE

As to `COc1nc(N2CCN3CCC[C@@H]3C2)cc(-n2ncc3cc(C)c(C4CCN(C5COC5)CC4F)cc32)n1` (single isomer, unassigned) [Example A-1], the IC50 is ≤ 100 nM.
In the case of `COc1nc(N2CCN3CCC[C@H]3C2)cc(-n2ncc3cc(C)c(C4CCN(C5COC5)CC4F)cc32)n1` (single isomer, unassigned) [Example A-2] it was ≤ 100 nM; in that of `COc1nc(N2CCN3CCOCC3C2)cc(-n2ncc3cc(C)c(C4CCN(C5COC5)CC4)cc32)n1` (single isomer, unassigned) [Example A-13, 8-(2-methoxy-6-(5-methyl-6-(1-(oxetan-3-yl)piperidin-4-yl)-1H-indazol-1-yl)pyrimidin-4-yl)octahydropyrazino[2,1-c][1,4]oxazine], 7.94 nM and ≤ 100 nM.
